Values joined by “and” are separate entries in the source; they are usually repeats but may differ in a detail not shown here. Identical values can stand only once.
What was measured:
[1] = system: BN472 tumors; assay: Efficacy experiment with orthotopic BN472 rat mammary carcinoma model; details: qd, p.o.; for T/C (%): 0.5% Methylcellulose suspension
Description: BN472 tumors were established by orthotopic implantation of tumor fragments into the mammary fat pad of BN rats. Female Brown-Norway (BN) rats (obtained from Charles River (France)) weighing 160-180 g (6-7 weeks of age) were used for all experiments. They were identified by tail markings and kept in groups of 3-5 animals under normal conditions with access to food and water ad libitum. Tumor fragments of 25 mm^3 were taken from the cortex region and were transplanted orthotopically under the fat pad of the fourth left mammary gland of the recipients. For efficacy experiments, treatments were always initiated when the mean tumor volume in each group reached 400-500 mm^3.

[2] = system: basal induced angiogenesis; assay: In vivo chamber implant angiogenesis assay, base line (no GF stimulation, PBS control chamber); set-up: species or system FVB mice
Description: Porous perfluoro-alkoxy-Teflon® chambers containing PBS in 0.5 ml of 0.8% w/v agar (containing heparin, 20 U/mL) were implanted subcutaneously in the flank of FVB mice. Animals were treated orally either with Compound A at 50 mg/kg once a day or vehicle (5 ml/kg) starting 4-6 hours before implantation of the chambers and daily for 3 days. Basal tissue formed around the chamber was carefully removed and the weight and Tie-2 levels were quantified. Animals were sacrificed 4 days after the implantation. Values are mean±SEM. *p<0.05, statistical significance of inhibition. The total number of animals per group is given in brackets.
(§1) Sterile tissue chambers made of perfluoro-alkoxy-Teflon® were filled with 500 μl molten 0.8% w/v agar containing 20 U/mL heparin (Novo Nordisk A/S, Bagsvaerd, Denmark) with or without growth factor (dog VEGF 2 μg/mL or phosphate buffer saline (PBS/O)). The chamber was implanted aseptically under isoflurane anesthesia through a small incision on the back of the animal and the incision was closed by wound clips. Animals were treated orally either with Compound A at 12.5, 25 or 50 mg/kg once a day formulated in a vehicle of NMP/PEG300 (10/90, V/V) or vehicle alone starting 4-6 hours before implantation of the chambers and daily for three days. VEGF induces the growth of vascularized tissue around the chamber. The angiogenic response can be quantified by measuring the weight and Tie-2 levels of the tissue.
(§2) Four days after implantation, animals were sacrificed using CO2. The chambers were recovered from the animal and the vascularized tissue that had formed around each implant was carefully removed and weighed. Tissue samples were homogenized for 30 sec at 24000 rpm (Ultra Turrax T25) after addition of 1 mL of Ripa buffer (Tris-HCl 50 mM, NaCl 120 mM, EDTA 1 mM, EGTA 6 mM, NP-40 1%, Sodium fluoride 20 mM, Pefabloc SC 1 mM, Sodium vanadate 1 mM). The samples were then centrifuged for 1 h at 7000 rpm. The supernatant was filtered using a 0.45 μm syringe filter (Acrodisc® GF, Gelman Sciences, Ann Arbor, Mich., USA) to avoid fat contamination.
Tie-2 is a receptor tyrosine kinase which is specifically expressed on endothelial cells. For Tie-2 level determination, Nunc (Naperville, Ill.) Maxisorp 96-well plates were coated over night at 4° C. with the capture antibody, anti-Tie-2 AB33 (UBI, Hauppauge, N.Y.), with a concentration of 2 μg/mL (100 μL/well). Wells were washed in TPBS (Tween 80 PBS) and blocked by incubating with 3% Top-Block (Juro, Lucerne, Switzerland) for 2 hours at room temperature. […] Tie-2 antibody complexes were detected after incubation with p-nitrophenyl phosphate substrate (Sigma). The absorbance of the spectro-photometric reaction was determined with an ELISA reader at 405 nm. […]
Four days after the subcutaneous implantation of the VEGF containing chambers, VEGF induced the formation of a thick layer of neovascularised tissue (called capsule) that grew around the implant. […] Tissue formation can be quantified by measuring the weight and the angiogenic response can be quantified by measuring the Tie-2 levels of the capsule. An ELISA assay can quantitatively measure endothelial cells in tissue extracts to evaluate the vascularization of the tissue. […]

[3] = system: VEGF-induced vessel leakage; assay: In vivo VEGF induced permeability assay (Miles assay); set-up: species or system FVB mice; details: 3, 6.25, 12.5 and 25 mg/kg p.o., 5 hours before VEGF injection in the ear
Description: FIG. 3: Effects of Compound A on VEGF induced permeability in vivo. FVB mice pre-treated with Compound A (3, 6.25, 12.5 and 25 mg/kg, p.o., for 5 h) were injected i.v. with Evans blue and challenged 30 minutes later with VEGF injection in the ear. Mice were then sacrificed and VEGF-mediated vessel leakage is quantified by measurement of the area (mm^2) of dye that extravasated at the site of VEGF injection using pixel-based threshold in computer-assisted image analysis software. Values are mean±SEM. *p<0.05, statistical significance of inhibition. The total number of animals per group is given in brackets.
200 μl of Evans blue (0.5%) was injected into the tail vein of female FVB mice. Thirty minutes following administration of the dye, the mice were anaesthesized (3% Isoflurane in O2, Forene®, Abbott AG, Cham, Switzerland) and then placed on an operating field maintained at a temperature of 39° C. Their ears were extended over a steel cone fitted with a double-sided sticker to expose the dorsal surface. […] VEGF-mediated vessel leakage is quantified by measurement of the area (mm^2) of dye that extravasated at the site of VEGF injection using pixel-based threshold in a computer-assisted image analysis software (KS-400 3.0 imaging system, Zeiss, Germany). […]

[4] = system: angiogenic response induced by VEGF; assay: In vivo chamber implant angiogenesis assay, VEGF-stimulated; set-up: species or system FVB mice
Description: Porous perfluoro-alkoxy-Teflon® chambers containing PBS or VEGF (2 μg/mL) in 0.5 ml of 0.8% w/v agar (containing heparin, 20 U/mL) were implanted subcutaneously in the flank of FVB mice. Animals were treated orally either with Compound A at 12.5, 25 and 50 mg/kg once a day or vehicle (5 ml/kg) starting 4-6 hours before implantation of the chambers and daily for 3 days. VEGF induces the growth of vascularized tissue around the chamber. The angiogenic response can be quantified by measuring the weight and Tie-2 levels of the tissue. Animals were sacrificed 4 days after the implantation. Values are mean±SEM. *p<0.05, statistical significance of inhibition. The total number of animals per group is given in brackets.
as §1, §2
Tie-2 is a receptor tyrosine kinase which is specifically expressed on endothelial cells. For Tie-2 level determination, Nunc (Naperville, Ill.) Maxisorp 96-well plates were coated over night at 4° C. with the capture antibody, anti-Tie-2 AB33 (UBI, Hauppauge, N.Y.), with a concentration of 2 μg/mL (100 μL/well). Wells were washed in TPBS (Tween 80 PBS) and blocked by incubating with 3% Top-Block (Juro, Lucerne, Switzerland) for 2 hours at room temperature. 300 μg of protein lysates were added and incubated for 2 hours, and the wells washed three times before addition of a goat anti-mouse Tie-2 antibody (R&D Systems, Minneapolis, Minn.; 0.5 μg/mL) and an alkaline phosphate conjugated anti-goat antibody (Sigma, St. Louis, Mo.; diluted 1:6,000) in TPBS+0.1%Top-Block for 1 hour at room temperature. Tie-2 antibody complexes were detected after incubation with p-nitrophenyl phosphate substrate (Sigma). The absorbance of the spectro-photometric reaction was determined with an ELISA reader at 405 nm. Recombinant human extracellular domain of Tie-2 fused to the constant regions of human IgG1 (sTie-2Fc) dissolved in RIPA buffer was used as standard in a concentration range from 0.1 to 300 ng/well
Four days after the subcutaneous implantation of the VEGF containing chambers, VEGF induced the formation of a thick layer of neovascularised tissue (called capsule) that grew around the implant. PBS containing chambers induced a much thinner layer of tissue with very few blood vessels around control chamber. Tissue formation can be quantified by measuring the weight and the angiogenic response can be quantified by measuring the Tie-2 levels of the capsule. An ELISA assay can quantitatively measure endothelial cells in tissue extracts to evaluate the vascularization of the tissue. […]

[5] = system: BN472 tumors; assay: Tumor interstitial fluid pressure (IFP) by radio-telemetry; format: in vivo, Brown-Norway (BN) rats
Description: FIG. 4: Effects of Compound A on tumor interstitial fluid pressure. (A) Orthotopic BN472 tumor bearing rats containing a pressure sensing catheter inserted in the tumor were treated with Compound A at 25 mg/kg (n=6; initial IFP: 25.4 mmHg±2.8), or with the vehicle control (n=9; 18.2 mmHg±1.5) for 3 consecutive days. The IFP was recorded for 72 h and variations (delta towards initial values) plotted (gray lines: untreated animals; dark line: applied treatment as indicated in the graph). Data presented are means±SEM. (B) Same as in A except that additional animals were treated orally with a lower dose of 12.5 mg/kg Compound A (n=3; initial IFP: 18.8 mmHg±2.3; gray line). Recording was extended for 3 additional days post last treatment to assess recovery patterns. The arrows represent the administration schedule. Gray bars represent night time.
The IFP of BN472 tumors was measured in conscious, freely moving rats maintained in their home cage using an adapted fully implantable miniaturized radio-telemetry system (Data Sciences Int., St. Paul, Minn.) composed of 4 basic components: an implantable transmitter (AM unit, model TLM-PAC10, volume: 1.1 cc, weight: 1.4 g) which continuously senses and transmits information from within the animal, one receiver located under the home cage, a matrix interface for coordination of signals and a computer-based data acquisition system for collection, analysis and storage of data. The body of the transmitter was implanted s.c. under aseptic conditions into the flank of the animal under isofluorane anaesthesia (3% Isoflurane in O2). Briefly, once animals are fully unconscious, they are placed on a heated blanket and the abdominal area is shaved. The ventral surface of the abdomen is then prepared by swabbing the skin with povidone iodine surgical scrub. With the animal supine, a skin incision of approximately 30 mm is made along the midline of the abdomen and the skin separated from the muscle wall building an air pocket. The sterile transmitter is then positioned in this pocket and the sensing catheter tunneled subcutaneously towards the tumor site (lowest mammary fat pad). The sensing pressure catheter was inserted into the body of the tumor (4-5 mm depth) and secured at the site of entry with tissue adhesive (Vetbond; 3M Company). Fluid communication between the tip of the pressure catheter and the tumor was tested by gentle compressing and decompressing the tubing connected to the telemetry transducer using a clamp. […] However, in most of the implanted tumors, intra-tumoral IFP pulse pressure waveform curves could be recorded unstintingly with high resolution confirming even more strongly the adequate sensing catheter placement. The total operation time for the implantation of the telemetry transmitter was about 20 min. Postoperative analgesia was provided using Buprenorphin (Temgesic®, Reckitt and Colman) injection of 0.05 mg/kg s.c. twice, immediately after surgery and 8-12 h later. Following surgery, the unconscious animal is placed on soft material in a clean cage with water ad libitum. An external heat lamp is used to maintain body temperature. The animals were allowed a period of 2 days to recover from surgery before starting acquisition of any physiological data. IFP was recorded continuously in all animals over 24 hours up to 5 days, and analyzed in 1-min cyclic runs for 10 sec, with a 500-Hz sampling rate. Values presented are means over 15 min periods.

[6] = 50 mg/kg p.o. once a day, exp. 1, mean ± SEM
[7] = 50 mg/kg p.o. once a day, exp. 2, mean ± SEM
[8] = 50 mg/kg, chamber without growth factor
[9] = 12.5 mg/kg p.o. once a day, exp. 2, mean ± SEM
[10] = 25 mg/kg p.o. once a day, exp. 2, mean ± SEM

In the case of Cc1nc(NC(=O)N2CCC[C@H]2C(N)=O)sc1-c1ccnc(C(C)(C)C(F)(F)F)c1 [Compound A, (S)-Pyrrolidine-1,2-dicarboxylic acid 2-amide 1-({4-methyl-5-[2-(2,2,2-trifluoro-1,1-dimethyl-ethyl)-pyridin-4-yl]-thiazol-2-yl}-amide)], the “% change of body weight corrected” value ([1]; 20 mg/kg) is reported as 1.2 ± 0.5%, the “Mean fold change in tumor growth” value ([1]; 20 mg/kg) is reported as 4.6 ± 0.8 and the “Survival (Survivors/total)” value ([1]; 20 mg/kg) is reported as 5/5. For the same molecule, the “Δ Body weight (mean g ± SEM)” value ([1]; 20 mg/kg) was 4.0 ± 1.1 g, the “Δ tumor volume (mean mm^3 ± SEM)” value ([1]; 20 mg/kg) was 1725 ± 283 * mm^3 and the “T/C (%)” value ([1]; 20 mg/kg) was 36% and 36 * %. The “% change of body weight corrected” value ([1]; 40 mg/kg) was −1.8 ± 0.5%, the “Mean fold change in tumor growth” value ([1]; 40 mg/kg) was 3.3 ± 0.2 and the “Survival (Survivors/total)” value ([1]; 40 mg/kg) was 5/5. The “Δ Body weight (mean g ± SEM)” value ([1]; 40 mg/kg) was -2.5 ± 0.9 g, the “Δ tumor volume (mean mm^3 ± SEM)” value ([1]; 40 mg/kg) was 1108 ± 198 * mm^3 and the “T/C (%)” value ([1]; 40 mg/kg) was 23% and 23 * %. For the same molecule, the “% inhibition Base line (no GF stimulation), Capsule weight” value [2, 6] was 14 ± 11 (2) %, the “% inhibition Base line (no GF stimulation), Capsule weight” value [2, 7] was 12 ± 10 (3) % and the “% inhibition Base line (no GF stimulation), Total Tie-2” value [2, 7] was 29 ± 9 * (3) %. For the same molecule, the “Tie-2 levels, basal induced angiogenesis” value [2, 8] was “significantly reduced”, the “tissue weight, basal induced angiogenesis” value [2, 8] was “did not affect tissue weight” and the “abrogation of VEGF-induced Evans blue dye extravasation” value [3] was “up to 90%”. For the same molecule, the “% inhibition VEGF-stimulated, Capsule weight” value ([4]; 12.5 mg/kg p.o. once a day, exp. 1, mean ± SEM) was 64 ± 33 (3) %, the “% inhibition VEGF-stimulated, Capsule weight” value [4, 9] was 74 ± 24 (4) % and the “% inhibition VEGF-stimulated, Total Tie-2” value [4, 9] was 58 ± 22 (4) %. For the same molecule, the “% inhibition VEGF-stimulated, Capsule weight” value ([4]; 25 mg/kg p.o. once a day, exp. 1, mean ± SEM) was 84 ± 5 * (3) %, the “% inhibition VEGF-stimulated, Capsule weight” value [4, 10] was 106 ± 28 * (4) % and the “% inhibition VEGF-stimulated, Total Tie-2” value [4, 10] was 113 ± 38 * (4) %. For the same molecule, the “Tie-2 levels of the capsule, VEGF chamber” value ([4]; 50 mg/kg given daily) was “returned to the baseline or even below”, the “% inhibition VEGF-stimulated, Capsule weight” value [4, 6] was 88 ± 12 * (4) % and the “% inhibition VEGF-stimulated, Capsule weight” value [4, 7] was 121 ± 11 * (6) %. For the same molecule, the “% inhibition VEGF-stimulated, Total Tie-2” value [4, 7] was 145 ± 9 * (6) %, the “angiogenic response induced by VEGF (weight and Tie-2 level of the capsule)” value ([4]; once a day at 12.5, 25 and 50 mg/kg in solution) was “inhibited significantly” and the “IFP pattern over three days of treatment compared with 25 mg/kg” value ([5]; 12.5 mg/kg) was “very similar pattern”. The “time post last treatment at which IFP returned to initial values” ([5]; 12.5 mg/kg) was no more than 60 h, the “time post last treatment without normalization of IFP diminution” value ([5]; 25 mg/kg) was greater than 72 h and the “reduction in IFP” value ([5]; 25 mg/kg, 4 hours post treatment) was “clear and significant reduction”. The “IFP change at max after first treatment” value ([5]; 25 mg/kg, 22 hours post dosage) was −25%, the “IFP inhibition after second treatment” value ([5]; 25 mg/kg, second treatment at time point 24 hours) was −36% and the “IFP inhibition after third treatment” value ([5]; 25 mg/kg, third treatment, sustained for 48 hours) was −43%.
